From publication PMC9951290, “Comprehensive Structure–Activity Relationship Studies of Cepafungin Enabled by Biocatalytic C–H Oxidations” (ACS Central Science, 2023)
Where two headings read alike, the source gives them in different places. Blank lines part the entries; values can stand above or below the compound they belong to.

Experiments:
[1] = Macrolactamisation of unprotected diamino acid: Lys epsilon-NH2 to vinylogous amino acid CO2H, DMTMMT (BF4 salt, 1.5 equiv), DIPEA (4 equiv); free alpha-NH2 and OH present; settings: the molecule shown is the open-chain precursor, 12-membered ring, DMF, 1.0 mM, 25.0 °C
[2] = test system: RPMI 8226 cells; assay: Cytotoxicity measurement (WST-1), RPMI 8226; format: cell-based, human; settings: for EC50: Homo sapiens, RPMI 8226, 48 hours, WST-1, n = 3, read-out: Cytotoxicity EC50 (cell viability); for Potency in cytotoxicity screening relative to natural product 1: RPMI 8226, 30 and 100 nM compound concentration, n = 3, Figure 4B
Method: (§1) Cellular assays were performed on human multiple myeloma RPMI 8226 cells (Figure 4). First, relative inhibition of proteasome subunits β5 and β2 for all analogues and the natural product was measured at 30 nM compound concentration. Following incubation of the compounds in cell culture for 6 h, cells were lysed, and fluorogenic subunit-specific peptide substrates Suc-LLVY-AMC (β5) or Ac-RLR-AMC (β2) were incubated with the lysates; fluorescence readings provided relative proteasome activity levels in comparison with DMSO (Figure 4A). Next, cytotoxicity screening was performed at 30 and 100 nM concentrations for sufficient coverage of dynamic range (Figure 4B). […] Therefore, the improved cytotoxicity of phenyl cepafungin 50 likely results from a more pronounced loss of β5 function in RPMI 8226 cells. This drastic increase in proteasome inhibition may be due to π-stacking of the lipid tail phenyl ring with the β6 subunit residues Tyr106 and/or Tyr5. The β2 subunit-bound natural product has residues Tyr102 and Phe103 on the adjacent β3 subunit oriented further away from the terminal lipid methyl groups, and presumably would not facilitate π-stacking to the extent possible at the adjacent β6 subunit (see Figure 3 and Figure S4). […] These combined modifications were made in hopes that the effects of both substitutions would be additive. […] The presence of a Thr residue next to the cepafungin macrocycle appears to be favored over the ethyl side chain of desoxy-Thr analogue 44 as indicated by cytotoxicity and hydrogen-bonding seen in the cepafungin-bound crystal structure (Figures 3 and 4B).
AMC (β5) or Ac-RLR-AMC (β2). […]
Cytotoxicity Measurements
in DMSO) or DMSO and cultured for 48 hours. Toxicity was determined using the WST-1 assay
(Roche) according to the protocol of the manufacturer. (n = 3)
Figure S1. […]

[3] = test system: RPMI 8226 cells; assay: Global proteomics analysis via LC-MS/MS of RPMI 8226 cells treated with BTZ or 50 (Table S5); format: cell-based, human
Method: Finally, we evaluated the changes in global protein expression following treatment of RPMI 8226 cells with either BTZ or 50. […] Following treatment, cells were collected via centrifugation, and protein lysates were digested with trypsin and analyzed using LC-MS/MS.
Global proteomics analysis via LC-MS/MS.
RPMI 8226 cells were seeded in a 6-well plate (1,000,000 cells/well) in cell culture media supplemented with DMSO, BTZ (2.5 nM, 1000x stock in DMSO), or 50 (3 nM, 1000x stock in DMSO) for 14 h. Cells were centrifuged (3,000 x g 5 min 4°C) and washed twice with PBS. Cell pellets were resuspended in PBS and protein concentration was determined using the Bradford assay (Bio-Rad). Urea (9 M in 100 mM NH4HCO3 pH 8) was added to a final concentration of 6 M to 30 µg lysate (15 µL PBS). […] Peptides were resuspended in water with 0.1 % FA and analyzed using EASY-nLC 1200 nano-UHPLC coupled to Q Exactive HF-X Quadrupole-Orbitrap mass spectrometer (Thermo Scientific). […]
The MS data were analyzed with MaxQuant (V2.0.3.0) and searched against the human proteome (Uniprot) and a common list of contaminants (included in MaxQuant). […] The minimum peptide length was set to 6 amino acids and peptide re-quantification and “match between runs” was enabled. […]

[4] = test system: RPMI 8226 cells; assay: Cytotoxicity measurement (WST-1), RPMI 8226; format: cell-based; settings: Homo sapiens, 24 h; RPMI 8226, used as treatment concentration for proteomics
[5] = test system: RPMI 8226 cells; settings: ∼3700 proteins quantified, 19 in common; cited from earlier work
[6] = test system: MM.1S; settings: Cell line: MM.1S; Figure 2; cited from earlier work
[7] = test system: MM.1S BtzR; settings: Cell line: MM.1S BtzR; Figure 2; cited from earlier work
[8] = test system: Mino; settings: Cell line: Mino; Figure 2; cited from earlier work
[9] = test system: Mino BtzR; settings: Cell line: Mino BtzR; Figure 2; cited from earlier work
[10] = test system: U266; assay: Cytotoxicity measurement (WST-1), U266; settings: Homo sapiens, U-266, 48 h, read-out: Cytotoxicity EC50
Method: (§2) Cells of the indicated cell line origin were seeded in a 96-well plate (20,000 cells/well) in
(§3) cell culture media supplemented with indicated compounds at given concentrations (1,000x stock
(§4) in DMSO) or DMSO and cultured for 48 hours. Toxicity was determined using the WST-1 assay (Roche) according to the protocol of the manufacturer. (n = 3)

[11] = test system: H929; assay: Cytotoxicity measurement (WST-1), H929; settings: Homo sapiens, NCI-H929, 48 h, read-out: Cytotoxicity EC50
Method: as §2, §3, §4

[12] = test system: HBL2; assay: Cytotoxicity measurement (WST-1), HBL2; settings: Homo sapiens, HBL2, 48 h, read-out: Cytotoxicity EC50
Method: as §2, §3, §4

[13] = test system: Mino; assay: Cytotoxicity measurement (WST-1), Mino; settings: Homo sapiens, 48 h, read-out: Cytotoxicity EC50
Method: as §2, §3, §4

[14] = test system: JeKo-1; assay: Cytotoxicity measurement (WST-1), JeKo-1; settings: Homo sapiens, JeKo-1, 48 h, read-out: Cytotoxicity EC50
Method: as §2, §3, §4

[15] = biological target: T1, proteasome subunit β5 (Homo sapiens, UniProt P28074); settings: in situ in RPMI 8226 cells; preliminary analogue series, Figure 2; cited from earlier work
T1 construct: Following incubation of the compounds in cell culture for 6 h, cells were lysed; endogenous in cells; host or cells: RPMI 8226 (human multiple myeloma)

[16] = biological target: T1, proteasome subunit β5; assay: In situ β5 proteasome activity assay (Suc-LLVY-AMC) in RPMI 8226 cells; format: cell-based
From the text: A preliminary series of analogues, including the natural product glidobactin A (2), were synthesized by largely the same route (Scheme 2B, Figure 2).[36] Desoxycepafungin (38) was synthesized from Boc-Lys(Boc)-OH by peptide couplings/macrocyclization to assess the role of the macrocycle hydroxylation in 1 toward proteasome inhibition. The saturated cepafungin analogue 39 was designed to address the possible role of rigidity in the tail fragment induced by the diene seen in many natural cepafungins and glidobactins. An analogue bearing unsaturation at its macrocyclic lysine was envisioned to provide a head-to-head comparison between the cepafungin and syringolin macrocyclic core. […] Proteasome subunit β5 IC50 values were determined in situ in RPMI 8226 cells. In close agreement with prior measurement of β5 IC50 for natural 1 and 2 in purified yeast proteasome,[12] in our hands the additional branching methyl in 1 indeed leads to ca. 5-fold improved IC50 compared to 2 in RPMI 8226 cells. […] Likewise, saturation of the fatty acid fragment in 39 causes ca. 14-fold decrease in β5 inhibition. This preliminary series of analogues highlighted that the macrocyclic hydroxylation, fatty acid unsaturation, and terminal lipid functionality are critical for potent proteasome inhibitory activity.
as §1, with “and 4B). […]” for “and 4B).”
Mammalian cell culture and lysate preparation
Mammalian cells were maintained in RPMI-1640 media. All media were supplemented with 10% fetal bovine serum (FBS, Life Technologies Cat# 10437028), non-essential amino acids (Sigma-Aldrich Cat# M7145) and penicillin/streptomycin (Sigma-Aldrich Cat# P4333). Cells were grown at 37 °C under 5% CO2 atmosphere. […] Cells were lysed by needle sonication to obtain cell lysates and protein concentration was determined using the […]
fluorescence was read at A360ex/A460em. […]

SMILES: CC(C)[C@@H](/C=C/C(=O)O)NC(=O)[C@@H](N)C[C@@H](O)CCN
- ring closure, yield by NMR ([1]; 36.0 h): 47%

SMILES: C[C@@H](/C=C/C(=O)O)NC(=O)[C@@H](N)CC(=O)CCN
- ring closure, yield by NMR ([1]; 36.0 h): 51%

SMILES: C[C@@H](/C=C/C(=O)O)NC(=O)[C@@H](N)C[C@@H](O)CCN
- ring closure, yield by NMR [1]: 63%

SMILES: C[C@@H](/C=C/C(=O)O)NC(=O)[C@@H](N)C[C@H](O)CCN
- ring closure, yield by NMR ([1]; 36.0 h): 59%

SMILES: C[C@@H](/C=C/C(=O)O)NC(=O)[C@@H](N)[C@@H](O)CCCN
- ring closure, yield by NMR ([1]; 36.0 h): 47%

SMILES: CC(C)[C@H]1/C=C/C(=O)NCC[C@H](O)C[C@H](NC(=O)[C@@H](NC(=O)/C=C/C=C/CCCCCc2ccccc2)[C@@H](C)O)C(=O)N1 [S39]
- EC50 [2]: 0.0045 µM

SMILES: CC(C)C[C@H](NC(=O)[C@H](Cc1ccccc1)NC(=O)c1cnccn1)B(O)O [bortezomib]
- EC50 [2]: 0.0022 ± 0.0001 µM
- overlap of upregulated proteins commonly affected by BTZ and 50 ([3]; 17 common proteins): 59%
- number of proteins with statistically significant increase in expression ([3]; RPMI 8226, 14 h, 2.5 nM BTZ or 3 nM 50 vs DMSO, out of 4080 quantified, FDR 5%, S0 0.1): 29 proteins
- EC50 [4]: 0.0025 µM
- number of proteins upregulated compared to DMSO control [5]: 25 proteins
- EC50 [6]: 0.0023 ± 3e-05 µM
- EC50 [7]: 0.028 ± 0.0006 µM
- EC50 [8]: 0.01 ± 0.0004 µM
- EC50 [9]: 0.023 ± 0.0011 µM
- EC50 [10]: 0.0031 ± 0.0001 µM
- EC50 [11]: 0.0015 ± 0.0002 µM
- EC50 [12]: 0.0025 ± 0.0004 µM
- EC50 [13]: 0.0074 ± 0.0003 µM
- EC50 [14]: 0.007 ± 0.0005 µM

SMILES: CCCCCCC/C=C/C=C/C(=O)N[C@H](C(=O)N[C@H]1C[C@@H](O)CCNC(=O)/C=C/[C@H](C)NC1=O)[C@@H](C)O [compound 2, glidobactin A]
- IC50 [15]: 0.077 ± 0.005 µM

SMILES: CCCCCCCCCCCCNC(=O)N[C@H](C(=O)N[C@H]1/C=C/CCNC(=O)/C=C/[C@H](C)NC1=O)C(C)C [compound 37, TIR-199]
- EC50 [6]: 0.048 ± 0.0087 µM
- EC50 [7]: 0.081 ± 0.0058 µM
- EC50 [8]: 0.064 ± 0.0021 µM
- EC50 [9]: 0.13 ± 0.002 µM

- fold higher IC50 than 1 ([16]; β5, RPMI 8226 cells): ca. 11 fold
SMILES: CC(C)CCCCC/C=C/C=C/C(=O)N[C@H](C(=O)N[C@H]1CCCCNC(=O)/C=C/[C@H](C)NC1=O)[C@@H](C)O [compound 38, Desoxycepafungin]
- IC50 [15]: 0.184 ± 0.029 µM

- fold decrease in β5 inhibition on saturation of the fatty acid fragment ([16]; 39 versus 1, RPMI 8226 cells): ca. 14 fold
SMILES: CC(C)CCCCCCCCCC(=O)NC(C(=O)NC1CC(O)CCNC(=O)C=CC(C)NC1=O)C(C)O (stereo not drawn) [compound 39]
- IC50 [15]: 0.219 ± 0.011 µM

SMILES: CC(C)CCCCC/C=C/C=C/C(=O)N[C@H](C(=O)N[C@H]1C[C@H](O)CCNC(=O)/C=C/[C@H](C)NC1=O)[C@@H](C)O [compound 40, epi-4-OH cepafungin]
- Potency in cytotoxicity screening relative to natural product 1 [2]: nearly inactive at both concentrations

SMILES: CC(C)CCCCC/C=C/C=C/C(=O)N[C@H](C(=O)N[C@@H]1C(=O)N[C@@H](C)/C=C/C(=O)NCCC[C@@H]1O)[C@@H](C)O [compound 41, 3-OH cepafungin]
- Potency in cytotoxicity screening relative to natural product 1 [2]: nearly inactive at both concentrations

SMILES: CC(C)CCCCC/C=C/C=C/C(=O)N[C@H](C(=O)N[C@H]1CC(=O)CCNC(=O)/C=C/[C@H](C)NC1=O)[C@@H](C)O [compound 42, keto cepafungin]
- Potency in cytotoxicity screening relative to natural product 1 [2]: potency approaching that of the natural product

SMILES: CC(C)CCCCC/C=C/C=C/C(=O)N[C@H](C(=O)N[C@H]1C[C@@H](O)CCNC(=O)/C=C/[C@H](C(C)C)NC1=O)[C@@H](C)O [compound 43, valinyl cepafungin]
- Potency in cytotoxicity screening relative to natural product 1 [2]: more potent than the parent natural product 1
